In data set [1] the test system is CD11b/CD18. As to the kind of experiment: Cell adhesion assay, primary rat macrophages on immobilized fibrinogen. In kind it is cell-based. The settings on record: vs non-activating Ca2+ and Mg2+. Here is the method: (§1) K562 cells stably transfected with plasmid encoding wild-type integrin CD11b/CD18 (K562 WT cells) have been described previously and were maintained in Iscove's Modified Dulbecco's Medium (IMDM) supplemented with 10% FBS and G418 (0.5 mg/ml). The murine macrophage cell line (RAW 264.7 cells) was obtained from ATCC and the cells were maintained in DMEM supplemented with 10% heat-inactivated FBS according to the manufacturer's instructions. The primary rat peritoneal macrophages were isolated from the wild type Fisher 344 rats that had been previously injected with 5 mL of Brewer's thioglycolate broth (Sigma-Aldrich). Macrophage purity was directly analyzed by single channel flow cytometry using rat macrophage specific monoclonal antibodies ED1 (AbD Serotec, Raleigh, N.C.), WT.5 (BD Biosciences) and His36 (BD Biosciences). Purity was typically >85%. Macrophages were used in assays immediately upon isolation.
(§2) Cell adhesion assays using K562 WT, murine RAW 264.7 cells and the primary rat macrophages were performed as previously described and used immobilized fibrinogen as the ligand of CD11b/CD18 [49]. […] The remaining adherent cells were fixed using 4% formaldehyde and quantified by imaging microscopy as previously described (22, 63). […]

For data set [2], the system named is Syk. As to the kind of experiment: Western blot analysis of Syk phosphorylation in leukocytes. Format: cell-based. As to conditions: leukocytes incubated 0-60 minutes. An excerpt:
TLR4-mediated signaling requires participation of the adaptor protein MyD88 (43) and MyD88−/− mice are protected from kidney damage following IRI. TLR4 activation leads to the binding and stabilization of adaptor protein MyD88, which recruits downstream kinases to initiate Nf-kB-mediated pro-inflammatory signaling. Subsequently, TLR4 signaling induces a negative feedback loop by endogenous activation of CD11b/CD18, which activates Syk to phosphorylate MyD88, tagging it for ubiquitin-mediated destruction. […] A pilot experiment was carried out to validate this hypothesis by determining the levels of MyD88 in human monocytic THP-1 cells. […] This supports the statements that leukadherins mediated priming of integrins for activation negatively regulates intracellular signaling, including the inflammatory NF-kB signaling.

The subject of data set [3] is Cl66 cells. As to the kind of experiment: Cl66 tumor re-growth after irradiation. Format: in vivo, mice. Here is the method: Data shown are means±SEM. *, P<0.05; **, P<0.001 (by one-way ANOVA). In this experiment, four groups of tumor-bearing animals were used (n=11/group): 1) Treatment with saline alone (red line), 2) Treatment with leukadherins LA1 alone (orange line), 3) Treatment with a single dose of 20 Gy irradiation (two 10%+10% vertices) alone (black line) and 4) Treatment with a single dose of 20 Gy irradiation and then daily LA1 (at −2 hours) (blue line). The syngeneic murine mammary adenocarcinoma cell line Cl66 (moderately metastatic and is related to the highly metastatic 4T1 cell line) was orthotopically introduced in Balb/c animals, by injecting approximately 5×10^5 Cl66 cells under the left mammary fat pad of WT BALB/c mice (approximately 10 weeks old). The tumor size was measured using calipers every other day until the end of the experiment (approximately 5 weeks). 7-days post implantation, the tumors in all animals became palpable, with an average size of ˜100 mm3. At that time, animals in groups 3 and 4 were treated with irradiation. Animals in group 4 received LA1, starting at 2 hours prior to irradiation. […]
A syngeneic xenograft model was used to address the effects of inflammatory cell recruitment on tumor cell re-growth after radio-therapy. […] The tumor size was measured using calipers every other day until the end of the experiment (approximately 5 weeks). […]

Data set [4] concerns neutrophils, hepatocytes, hERG. As to the kind of experiment: Pilot in vitro ADME assay (neutrophils, hepatocytes, hERG). The settings on record: at up to 100 µM. (Block of hERG is tested as a sign of cardiac risk.)
Data set [5] concerns the target CD11b/CD18 (Homo sapiens, UniProt P11215). The data set can be described thus: Cell adhesion assay, K562 WT cells on immobilized fibrinogen. In kind it is cell-based. Details: K562 cells stably transfected with plasmid encoding wild-type integrin CD11b/CD18; expressed in transfected cells. The settings on record: vs basal Ca2+ plus Mg2+ (1 mM each); leukadherins 15 μM, mAbs 20 μg/mL, Mn2+ 1 mM. Here is the method: as §1, §2

“Also recorded” adds a separate entry of the source.

As to `O=C(O)c1ccc(-c2ccc(/C=C3\SC(=S)N(Cc4ccccc4)C3=O)o2)cc1` [LA1], the “adhesion of primary rat macrophages to immobilized fibrinogen” value in data set [1] is listed as “significantly enhanced the level of macrophage adhesion”. In addition, the “Syk phosphorylation (pSyk)” value in data set [2] was “induction of Syk phosphorylation; also recorded: induces Syk phosphorylation”. For the same compound, in data set [3] (similar to irradiation alone), the “rate of tumor growth, LA1 alone without irradiation” value is “reduced rate of tumor growth”. In data set [3] (single dose 20 Gy plus LA1 from -2 hours), the “rate of tumor growth post-irradiation” value is recorded as “significant reduction in the rate of tumor growth post-irradiation”. In addition, the “adverse findings in pilot in vitro ADME assay” value in data set [4] is listed as “no adverse findings”. In addition, the “adhesion of K562 WT cells to immobilized fibrinogen” value in data set [5] is “significantly increased”.

(Values after patent publication US10239871B2, “Compounds and methods for regulating integrins” (ADHAERE PHARMACEUTICALS, INC., priority 2012, dated 2019).)
